Results reported in US20080279868A1, “Antibody-Drug Conjugates and Methods of Use” (priority 2005, published 2008).

Assay: Rate of cyclization of 6-membered hydrazine linker in buffer
Type: physicochemical
Conditions: for rate of cyclization of the hydrazine linker: buffer at pH 7.4
Protocol: A duocarmycin analog conjugated to a dimethyl 6-membered hydrazine linker was incubated in buffer at pH 7.4 for 24 hours and the generation of cyclized product resulting from cyclization of the hydrazine linker, thereby releasing free duocarmycin analog, was assessed over time.
A duocarmycin analog conjugated to a gem-dimethyl 6-membered hydrazine linker was incubated in buffer at pH 7.4 and the generation of cyclized product resulting from cyclization of the hydrazine linker, thereby releasing free duocarmycin analog, was assessed over time.

SMILES | rate of cyclization of the hydrazine linker | generation of cyclized product resulting from cyclization of the hydrazine linker (buffer at pH 7.4, over 24 hours)
COC(=O)c1c(C)[nH]c2c(OC(=O)N(C)CC(=O)N(C)N)cc3c(c12)[C@H](CCl)CN3C(=O)c1cc2cc(OC)ccc2o1 | relatively slow rate of cyclization | Minimal amounts of cyclized product
COC(=O)c1c(C)[nH]c2c(OC(=O)N(C)C(C)(C)C(=O)N(C)N)cc3c(c12)[C@H](CCl)CN3C(=O)c1cc2cc(OC)ccc2o1 | proceeding to completion within a few minutes | 
